Tests used:
[1] = human, in vivo
Description: FIGS. 1a and 1b show accumulation of FACBC in the Virchow's node when the FACBC is injected into the left arm.
In some embodiments, the right arm may be preferred as stasis in the axillary vein upon injection in the left arm may be misinterpreted as a metastatic lymph node called Virchow's node, which is located in the left supraclavicular fossa (the area above the left clavicle, or collar bone). For example, FIGS. 1a and 1b show accumulation of FACBC in the Virchow's node when the FACBC is injected into the left arm.

[2] = test system: known prostate carcinoma recurrence; assay: PET time activity curves (FIG. 3); assay type: in vivo, human; conditions: for time at which plateau was reached: remained constant throughout the imaging period
Description: Regions in marrow (ilium), muscle (gluteus), and bladder reached a plateau at 4.5 minutes that remained constant throughout the imaging period.

standardized uptake value (SUV) [1]: > 200 | time at which plateau was reached ([2]; bladder): 4.5 min | time of maximum uptake ([2]; known prostate carcinoma recurrence): 4.5 min | plateau of uptake lasting to ([2]; known prostate carcinoma recurrence, after maximum at 4.5 minutes): 30 min | gradual clearance ([2]; known prostate carcinoma recurrence, after plateau, out to 60 minutes): 9 %/min | time at which plateau was reached ([2]; marrow (ilium)): 4.5 min | time at which plateau was reached ([2]; muscle (gluteus)): 4.5 min
Structure (SMILES): N[C@]1(C(=O)O)C[C@@H](F)C1 [fluciclovine, anti-1-amino-3-^18F-fluorocyclobutane-1-carboxylic acid]
